Results on three compounds are retold here after US9271492B2, “Antimicrobial composition” (Rohm and Haas Company, priority 2011, dated 2016).

Common to all, as to assay type: cell-based
The test system of test [1] is Escherichia coli (10536 strain). Briefly: Example 1: 15 second contact suspension kill assay, mean bacterial survival and MBC. As to conditions: component alone; lowest concentration giving complete kill after 15 seconds; upper boundary to the MBC.
Test [2] relates to Escherichia coli (E. coli ATCC #10536). Briefly: Example 3: automated assessment of efficacy in surfactant base (2.85% sodium cocoyl glycinate + 1.85% sodium lauroamphoacetate, pH 10). The settings on record: for bactericidal efficacy in combination with thymol (in words): in combination with thymol at concentrations lower than their MBC in the same surfactant formulation, complete kill in all 4 or 3 replicates; for MBC (minimum biocidal concentration): component alone in 2.85% sodium cocoyl glycinate + 1.85% sodium lauroamphoacetate solution at pH 10. On the procedure:
In these examples, the efficacy of combinations of thymol and menthadiene alcohols were tested in a surfactant cleansing formulation comprising 2.85% sodium cocoyl glycinate and 1.85% sodium lauroamphoacetate. This corresponds to a 50% in use dilution with water of a typical neat formulation containing 5.7% cocoyl glycinate and 3.7% % sodium lauroamphoacetate during hand washing. Solutions were prepared such that the concentrations of the surfactant components and test actives were 1.1 times the final desired concentration in order to allow for dilution with the bacterial inoculum in the test. The solutions were manually adjusted to pH 10.0 by dropwise addition of sodium hydroxide solution, as measured with a pH meter at ambient temperature. Solutions of the thymol and/or menthadiene alcohols were prepared at a maximum of 24 hours before testing. The same thymol and menthadiene alcohols were used as in Example 1.
The efficacy of the combinations of the present invention was determined against the same bacterium as in Example 1, Escherichia coli (E. coli ATCC #10536), at a concentration of approximately 1×10^8 bacteria per mL.
Tests were conducted using standard microtiter plate assays using an automated liquid handling system. 270 μl of the surfactant test solution was pipetted into each well of the microtitre plate (Nunc F Gamma Irradiated 96F untreated microtitre plates of clear polystyrene) and 30 μl of the bacterial suspension was then added. After exactly 15 seconds of bacterial exposure, a 30 μl volume of bacterial cells was withdrawn and transferred to 270 μl of D/E quench solution. After 5 minutes in the D/E quench, the optical density (OD) was measured for each plate in turn at two specific wavelengths (450 nm and 590 nm). These provide a dual check of antimicrobial activity, as the OD450 reading is specific for the yellow colour of D/E quench when bacterial growth is observed, whereas OD590 is specific for the initial purple colour of the D/E quench which is retained if no bacterial growth is observed. […] Delta OD values were calculated by subtracting […] at time=16 hours. […] To identify antibacterially efficacious systems (those preventing appreciable bacterial growth after incubation), the following threshold changes in OD readings have been adopted: if (1). OD450 increases by less than 0.2 absorbance unit (AU) on incubation and (2). […] The number of replicate wells showing either bacterial growth or no growth is also readily assessed by eye by following the colour change. […]
In each case, binary mixtures were assessed in the weight to weight ratio of thymol to menthadiene alcohol of 1:2.5.

Test [3] deals with Escherichia coli (E. coli - ATCC #10536). Briefly: Example 2: high resolution MBC synergy assay in phosphate buffer containing 5% dipropylene glycol. The settings on record: for ΣFBC: calculated from Ca/MBCA + Cb/MBCB; for MBC of component alone (MBCA, MBCB) / Cb, end-point (MBC) of second component carveol in the mixture / Cb, end-point (MBC) of second component perillyl alcohol in the mixture / Ca, end-point (MBC) of first component thymol in the mixture: complete kill in 15 seconds; for MBC of component alone (MBCA, MBCB): phosphate buffer with 5% DPG, about 1×10^8 bacteria per mL; for Cb, end-point (MBC) of second component carveol in the mixture / Cb, end-point (MBC) of second component perillyl alcohol in the mixture: mixture with thymol at Ca. On the procedure:
In this Example, a wide range of combinations of chemicals was tested by conducting high resolution MBC assays of carveol or perillyl alcohol in the presence of various concentrations of thymol. […] The MBC plate was inoculated one column at a time with the test microorganism. An aliquot of the inoculated well was transferred at 15 seconds to a plate containing a neutralizing agent (D/E Neutralizing Broth), mixed and held for 5 minutes before being transferred to a growth plate containing trypticase soy broth (TSB). The TSB plate was incubated at 37° C. and read for the presence/absence of growth at 24 hours. […] This microorganism is representative of natural contaminants in many consumer and industrial applications. […] The tables show the specific combinations of two components; results against the microorganism tested; the end-point activity in weight % measured by the MBC for the first component alone (thymol, MBCA), for the second component alone ([…] alcohol, MBCB), for the first component in the mixture (Ca) and for the second component in the mixture (Cb); the calculated ΣFBC value; and the range of synergistic ratios for each combination tested (first component to second component or A/B) against the particular microorganism.

Take `C=C(C)C1CC=C(C)C(O)C1` (stereo not shown) [carveol, 2-methyl-5-(prop-1-en-2-yl)cyclohex-2-enol]: the “MBC (minimum biocidal concentration)” value in test [1] is reported as 0.3 % w/v. In addition, the “bactericidal efficacy in combination with thymol (in words)” value in test [2] was 15 second bactericidal efficacy. Also, in test [3], the ΣFBC is listed as 1.00. Moreover, the “MBC of component alone (MBCA, MBCB)” value in test [3] is given as 0.7 weight %. Moreover, the “Cb, end-point (MBC) of second component carveol in the mixture” value in test [3] (thymol to carveol ratio 1 to 0.05) is 0.025 weight %; in test [3] (thymol to carveol ratio 1 to 0.08), 0.05 weight %; in test [3] (thymol to carveol ratio 1 to 0.25), 0.075 weight %; in test [3] (thymol to carveol ratio 1 to 0.5), 0.1 weight %; in test [3] (thymol to carveol ratio 1 to 4.38), 0.35 weight %.

Turning to `C=C(C)[C@@H]1CC=C(CO)CC1` [perillyl alcohol, (S)-(4-(prop-1-en-2-yl)cyclohex-1-en-1-yl)methanol], the “MBC (minimum biocidal concentration)” value in test [1] came to 0.1 % w/v; in test [2], 0.5 % w/v. Besides, the “bactericidal efficacy in combination with thymol (in words)” value in test [2] was 15 second bactericidal efficacy. In addition, the ΣFBC in test [3] was 1.00. For the same compound, the “MBC of component alone (MBCA, MBCB)” value in test [3] amounted to 0.3 weight %. Also, the “Cb, end-point (MBC) of second component perillyl alcohol in the mixture” value was 0.025 weight % in test [3] (thymol to perillyl alcohol ratio 1 to 0.13); 0.05 weight % in test [3] (thymol to perillyl alcohol ratio 1 to 0.17); 0.075 weight % in test [3] (thymol to perillyl alcohol ratio 1 to 0.38); 0.1 weight % in test [3] (thymol to perillyl alcohol ratio 1 to 0.5); 0.2 weight % in test [3] (thymol to perillyl alcohol ratio 1 to 2.5).

`Cc1ccc(C(C)C)c(O)c1` [thymol, 2-isopropyl-5-methylphenol]: the “MBC (minimum biocidal concentration)” value in test [2] is reported as 0.2 % w/v. In addition, the ΣFBC in test [3] is 1.00. Further, the “Ca, end-point (MBC) of first component thymol in the mixture” value in test [3] (mixture with carveol at Cb, thymol to carveol ratio 1 to 0.05) is listed as 0.5 weight %; in test [3] (mixture with carveol at Cb, thymol to carveol ratio 1 to 0.08), 0.6 weight %; in test [3] (mixture with carveol at Cb, thymol to carveol ratio 1 to 0.19) it was 0.4 weight %; in test [3] (mixture with carveol at Cb, thymol to carveol ratio 1 to 0.25), 0.3 weight %; in test [3] (mixture with carveol at Cb, thymol to carveol ratio 1 to 0.5) it was 0.2 weight %; in test [3] (mixture with carveol at Cb, thymol to carveol ratio 1 to 3.5), 0.1 weight %. Further, the “Ca, end-point (MBC) of first component thymol in the mixture” value was 0.08 weight % in test [3] (mixture with carveol at Cb, thymol to carveol ratio 1 to 4.38); 0.3 weight % in test [3] (mixture with perillyl alcohol at Cb, thymol to perillyl alcohol ratio 1 to 0.17); 0.2 weight % in test [3] (mixture with perillyl alcohol at Cb, thymol to perillyl alcohol ratio 1 to 0.5); 0.08 weight % in test [3] (mixture with perillyl alcohol at Cb, thymol to perillyl alcohol ratio 1 to 2.5).
